According to patent US20170296545A1, “Composition Of A Ceramic Matrix With A Controlled Release Drug, A Tablet Obtained From The Composition And Methods For Obtaining The Composition And The Tablet” (priority 2009, published 2017):
Where two headings read alike, the source gives them in different places.

Columns and labels:
[1] = cited from earlier work
Wistar rats [2] = conditions: rat, in vivo
Experimental: The tests were performed according to Organization for Economic Cooperation and development OECD 423 guide. The methodology consisted of toxicity by evaluating and analyzing of the biochemical and histopathological parameters which resulted from administration thereof.

Wistar rats [3] = conditions: rat, in vivo; remark: listed apart in the source
Experimental: In the slices of the liver of the Wistar rats, it was evaluated the presence of hepatic necrosis, proliferation of biliary ducts, proliferation of fibrous conjunctive tissue, and blood extravasation (Cunha, et. al., 2009).

Row | Compound | solubility in acid or diluted alkaline solutions ([1]; acid or diluted alkaline solutions) | solubility in alcohol ([1]; alcohol) | solubility in water ([1]; water) | short-term repeated-dose toxicity (Wistar rats [2]) | histopathological evaluation of the liver (Wistar rats [3]; 50 mg/kg) | histopathological evaluation of the liver (Wistar rats [3]; 300 mg/kg) | histopathological evaluation of the liver (Wistar rats [3]; 2000 mg/kg) | histopathological evaluation of the livers (Wistar rats [3]; po) | macroscopic tests of the organs (Wistar rats [3]; po)
1 | Nc1nc2c(ncn2COCCO)c(=O)[nH]1 [acyclovir] | only slight soluble | insoluble | poorly soluble |  |  |  |  |  | 
2 | pseudoboehmite |  |  |  | low | tissue integrity | a sinusoidal congestion was detected | tissue integrity | there were not observed any changes in the tissue integrity or apparent injuries | No abnormal changes
